Results taken from ChEMBL document CHEMBL5365474, “Discovery of a First-in-Class CD38 Inhibitor for the Treatment of Mitochondrial Myopathy” (J Med Chem, 2023).
≈ marks a conversion by molar mass, not a printed value.

Experiment: physchem
Conditions: PBS, pH 7.4

Compound `O=C(Nc1cccnc1)c1cc(C(F)(F)F)nc(-n2ccnc2)n1` has a solubility at 2 h of 48 µM (≈ 16 µg/mL).
